# From PMC6321252 (Molecules, 2018)
# Legend:
# P-gp = conditions: cited from earlier work
# [1] = parameters: method as in PMID 21637946; conditions: cited from earlier work
# Caco-2 cells = test: Cell viability (MTT assay) in Caco-2 cells; assay type: cell-based; conditions: BB 12.5 to 50 μM, 24 h
# Protocol: The cells were treated with different doses of compounds and incubated for 24 h. Cell viability was determined using the MTT assay. Briefly, the cells were incubated with the MTT reagent (0.5 mg/mL) at 37 °C for 4 h, and the absorbency at a wavelength of 492 nm was measured using FlexStation 3 (Molecular Devices, Sunnyvale, CA, USA). The percentage of optical density was calculated by comparing with that of the control group.
# [2] = Transepithelial transport of BB across Caco-2 cell monolayers; assay type: in vitro ADME; conditions: human, read-out: efflux ratio R = Papp(B-A)/Papp(A-B) of BB
# Protocol: (§1) Monolayers were employed at 21 days after seeding. To ensure the integrity of each cell monolayer, transepithelial electrical resistance was determined. Subsequently, cell monolayers were incubated with compounds in fresh incubation media from either the AP or BL side for designated time periods at 37 °C. The volume of incubation media on the AP and BL sides was 0.5 and 1.5 mL, respectively, and a 30 µL aliquot of the incubation solution was withdrawn at designated time points (60, 120, 180, and 240 min) from the receiver compartment and replaced with the same volume of a fresh prewarmed HBSS buffer.
# (§2) BB concentrations were detected through LC–MS/MS. Apparent permeability (Papp) was calculated as follows:Papp = (dQ/dt) × VA/(C0 × A)(1) where dQ/dt is the permeability rate, A is the surface area of the monolayer, and C0 is the initial concentration of the drug.
# Caco-2 cell monolayers = test: as above; assay type: in vitro ADME
# Protocol: as §1, §2
# db/db mice = test: Hypoglycemic study in diabetic db/db mice; assay type: in vivo, C57BLKS/J db/db mice; conditions: for AUC for the IPTT vs nontreated db/db mice / AUC for the OGTT vs nontreated db/db mice: 5 weeks administration; for AUC for the IPTT vs nontreated db/db mice / AUC for the OGTT vs nontreated db/db mice / effect on body weight (obesity): metformin 150 mg/kg, BB 200 mg/kg, BB 200 mg/kg plus OPCs 60 mg/kg; for effect on body weight (obesity): repeated oral administration 4 weeks
# Protocol: Male C57BLKS/J db/db and db/m mice were obtained from the Model Animal Research Center of Nanjing University (Nanjing, China). The mice were housed in a temperature-and humidity-controlled room with free access to standard chow and water under a 12/12-h light/dark cycle. At 6 weeks of age, the diabetic db/db mice were randomly divided into 4 groups (n = 10 per group). […] After 6 h of fasting, their blood glucose was monitored using blood from the tail vein and a glucometer (Accu-CHEK, Roche, IN, USA) every week. On Days 33 and 35 after drug administration, the mice were fasted for 12 and 6 h to perform an OGTT and IPTT, respectively. At the end of the experimental period, the mice’s blood was collected for further studies. Serum TG and TC levels were assayed using commercial enzyme assay kits (Rongsheng, Shanghai, China).
structure (smiles),measurement,setting,value
"COc1ccc2cc3[n+](cc2c1OC)CCc1cc2c(cc1-3)OCO2 [BB, Berberine]",P-gp substrate status,P-gp,substrate of P-gp
same,oral bioavailability,[1],< 1%
same,cytotoxicity on Caco-2 cells (MTT),Caco-2 cells,no toxic effect
same,efflux ratio at 240 min,[2],7.74 ± 1.13
same,Papp(A-B) of BB,Caco-2 cell monolayers; apical to basolateral,0.146 ± 0.012 ×10^−6
same,Papp(B-A) of BB,Caco-2 cell monolayers; basolateral to apical,1.001 ± 0.049 ×10^−6
same,AUC for the IPTT vs nontreated db/db mice,db/db mice; p < 0.001 vs. control,significantly lower
same,AUC for the OGTT vs nontreated db/db mice,db/db mice; p < 0.001 vs. control,significantly lower
same,hepatotoxicity (from serum ALT and AST),"db/db mice; 5 weeks, BB 200 mg/kg with or without OPCs 60 mg/kg",did not cause hepatotoxicity
same,lowering of fasting blood glucose (FBG),"db/db mice; oral, 4 weeks, BB 200 mg/kg with or without OPCs 60 mg/kg, p < 0.001 vs. control",35%
same,effect on body weight (obesity),db/db mice,no significant effect
CN(C)C(=N)N=C(N)N [metformin],AUC for the IPTT vs nontreated db/db mice,db/db mice; p < 0.001 vs. control,significantly lower
same,AUC for the OGTT vs nontreated db/db mice,db/db mice; p < 0.001 vs. control,significantly lower
same,effect on body weight (obesity),db/db mice,no significant effect
